Drawing on PubChem BioAssay (NCI), this text covers TGI and GI50 for 15 compounds.

Test in all cases: inhibition of tumour cell growth, NCI panel, 48 h
The subject of test [1] is MOLT-4 leukemia.
The test system of test [2] is OVCAR-8 ovarian.
For test [3], the system named is LOX IMVI melanoma.
For test [4], the system named is MALME-3M melanoma.
In test [5] the test system is HOP-62 NSCLC.
Test [6] has as its system SN12C renal.
The subject of test [7] is DU-145 prostate.
The test system of test [8] is HCT-15 colon.
Test [9] relates to SK-MEL-5 melanoma.
In test [10] the test system is U251 CNS.

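Method: 48-hour compound exposure of cells in 96-well plates, five concentrations, linear interpolation of endpoints. GI50 = concentration required for 50% inhibition of growth. The concentration for full growth arrest is given as TGI.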

For the compound `CC(C)(CCc1nc2ccccc2[nH]1)C(=O)O`, the TGI in test [1], in test [2], in test [3], in [4], in test [5] and in test [6] was above 100 µM throughout. The TGI in test [7], in test [8], in test [9] and in test [10] was above 100 µM each time.

Take `O=C1C(=O)c2c(ccc3ccccc23)-c2ccccc21`: the GI50 in [1] is 2.37 µM; in test [2] it was 2.11 µM; in test [3], 1.38 µM; in test [4] it was 1.63 µM; in test [5] it was 1.9 µM; in [6], 1.6 µM. Besides, the GI50 in [7] was 1.4 µM; in test [8] it was 1.02 µM; in test [9], 1.5 µM; in [10], 1.67 µM. The TGI was 6.83 µM in test [1]; 7.98 µM in test [2]; 3.93 µM in test [3]; 3.44 µM in [4]; 4.56 µM in [5]; 3.31 µM in test [6]. Also, the TGI in test [7] was 2.73 µM; in test [8], 6.43 µM; in [9], 2.82 µM; in test [10], 3.56 µM.

`C=CCCC1(CCP(=O)(c2ccccc2)c2ccccc2)OCCO1`: the TGI in test [1], in test [2], in test [3], in test [4], in [5] and in test [6] was above 100 µM each time. Also, the TGI in [7], in test [8], in test [9] and in [10] was above 100 µM each time.

For `CC(=O)OC1CCC2(C)C(=CCC3C4CC(CN5CC5)C(=O)C4(C)CCC32)C1` (centres undefined), the GI50 in test [1] is 3.1 µM; in test [2], 12.2 µM; in test [3], 6.58 µM; in test [4], 2.21 µM; in test [5] it was 18.8 µM; in [6] it was 15.4 µM. In addition, the GI50 in [7] is 8.29 µM; in test [8] it was 2.27 µM; in [9], 12.7 µM; in test [10], 13.6 µM. Also, the TGI in [1] worked out at 8.3 µM; in test [2], 26.2 µM; in test [3], 18.2 µM; in test [4], 5.56 µM; in test [5], 33.6 µM; in test [6], 30.4 µM. Moreover, the TGI in test [7] worked out at 20.4 µM; in test [8], 5.62 µM; in [9] it was 25.9 µM; in [10], 27.6 µM.

Consider `Brc1ccc2c(c1)-c1ccccc1C1=NCCN12`, for which the GI50 in [1] is 0.419 µM; in [2], 0.573 µM; in test [3], 0.526 µM; in test [4] it was 1.35 µM; in test [5], 0.962 µM; in test [6] it was 1.13 µM. In addition, the GI50 is 1.09 µM in test [7], 0.68 µM in test [8], 1.52 µM in test [9] and 1.24 µM in [10]. Besides, the TGI in [1] came to 3.73 µM; in [2], 12.1 µM; in test [3], 10.6 µM; in test [4], 2.97 µM; in test [5], 8.02 µM; in [6], 13 µM. In addition, the TGI in [7] stood at 10.9 µM; in test [8], 10.8 µM; in test [9], 3.24 µM; in test [10] it was 11.1 µM.

As to `C/C(=N\NC(=O)c1ccncc1)c1ccccc1O`, the GI50 in [1] was 2.35 µM; in test [2], 3.05 µM; in test [3], 1.46 µM; in test [4], 5.39 µM; in test [5], 3.82 µM; in [6] it was 4.79 µM. The GI50 in test [7] was 4.85 µM; in test [8], 0.828 µM; in [9] it was 3.6 µM; in [10], 3.31 µM. For the same compound, the TGI in [1] is above 100 µM; in [2] it was above 100 µM; in test [3], above 100 µM; in test [4], 97.3 µM; in test [5], above 100 µM; in test [6], above 100 µM. Further, the TGI was above 100 µM in test [7], above 100 µM in test [8], 32.2 µM in test [9] and above 100 µM in test [10].

In the case of `CCC(=C(c1ccc(OCCN(CC)CC)cc1)c1ccc(OCCN(CC)CC)cc1)c1ccc(Cl)cc1`, the GI50 in test [1] is 0.583 µM; in test [2], 0.685 µM; in test [3], 0.55 µM; in test [4], 0.567 µM; in test [5] it was 0.598 µM; in test [6], 0.606 µM. Further, the GI50 is 0.619 µM in [7], 0.541 µM in test [8], 0.593 µM in test [9] and 0.57 µM in [10]. Besides, the TGI came out at 1.3 µM in [1]; 1.51 µM in test [2]; 1.03 µM in test [3]; 1.07 µM in test [4]; 1.28 µM in test [5]; 1.24 µM in test [6]. The TGI in [7] amounted to 1.19 µM; in test [8], 1.08 µM; in test [9], 1.06 µM; in [10], 1.14 µM.

On to `Cc1c(-c2ccc(N3CCc4cccc(C(=O)Nc5nc6ccccc6s5)c4C3)nc2C(=O)O)cnn1CC12CC3CC(CC(C3)C1)C2`, for which the GI50 in test [1] is below 0.01 µM; in [2], 7.49 µM; in test [3] it was 5.92 µM; in test [4], 14.3 µM; in test [5], 10.1 µM; in test [6], 6.93 µM. The GI50 in [7] was 15.2 µM; in test [8] it was 6.08 µM; in test [9] it was 2.79 µM; in [10], 7.04 µM. The TGI in test [2] turned out to be 33 µM; in [3], 23.4 µM; in [4], 33.7 µM; in test [5] it was 27.8 µM; in [6] it was 29.8 µM; in test [7], 29.1 µM. For the same compound, the TGI was found to be 19.9 µM in test [8], 9.79 µM in [9] and 30.2 µM in test [10].

Regarding `O=C(/C=C/N1CCN(c2cccc(Cl)c2)CC1)c1ccc(Cl)cc1`, the GI50 is 33.5 µM in test [1]; 34.5 µM in test [2]; 32.3 µM in test [3]; 4.89 µM in [4]; 48.4 µM in test [5]; 24.1 µM in test [6]. Moreover, the GI50 in [7] is 38.4 µM; in test [8], 31 µM; in test [9], 16.5 µM; in [10], 42.1 µM. Also, the TGI in [1] is above 100 µM; in test [2], above 100 µM; in test [3], 96.9 µM; in test [4] it was 26.4 µM; in [5], above 100 µM; in [6] it was 65 µM. The TGI in test [7] is above 100 µM; in test [8], above 100 µM; in test [9] it was 31.5 µM; in test [10], above 100 µM.

With `O=C(NCc1cccnc1)c1ccc([N+](=O)[O-])o1`, the GI50 was above 20 µM in [1]; 2.37 µM in test [2]; 1.2 µM in test [3]; 1.56 µM in test [4]; 1.3 µM in test [5]; 1.19 µM in test [6]. For the same compound, the GI50 is 1.11 µM in test [7], 0.647 µM in test [8], 2.18 µM in test [9] and 1.03 µM in test [10]. Besides, the TGI is above 32.5 µM in test [1]; 14.5 µM in test [2]; 6.58 µM in [3]; 7.88 µM in test [4]; 4.79 µM in test [5]; 4.49 µM in test [6]. The TGI is 4.11 µM in test [7], 1.76 µM in test [8], 6.38 µM in test [9] and 3.83 µM in test [10].

With `Nc1ccc(N)c2c1C(=O)c1cccc([N+](=O)[O-])c1C2=O`, the GI50 in test [1] is 8.33 µM; in test [2] it was 2.67 µM; in test [3] it was 1.84 µM; in test [4], 5.69 µM; in test [5], 1.62 µM; in [6] it was 2.48 µM. For the same compound, the GI50 in test [7] is 0.662 µM; in test [8], 2.16 µM; in [9] it was 1.43 µM; in test [10], 2.85 µM. The TGI in test [1] is above 91.4 µM; in test [2] it was 19.7 µM; in test [3], above 100 µM; in [4], above 100 µM; in test [5] it was 7.88 µM; in test [6], above 100 µM. Further, the TGI in test [7] is 6.9 µM; in test [8], above 100 µM; in [9] it was 3.76 µM; in test [10], above 100 µM.

Take `O=C(COC(=O)[C@H](C[Se][Se]C[C@H](NC(=O)c1ccc(Br)cc1F)C(=O)OCC(=O)c1ccc(F)cc1)NC(=O)c1ccc(Br)cc1F)c1ccc(F)cc1`: the GI50 in test [1] was 3.54 µM; in [2] it was 0.408 µM; in [3], 1.48 µM; in test [4], 0.639 µM; in [5], 0.654 µM; in test [6], 1.27 µM. Moreover, the GI50 is 0.385 µM in [7], 1.34 µM in test [8], 1.23 µM in test [9] and 0.696 µM in [10]. The TGI in test [1] stood at 71.3 µM; in [2], 1.61 µM; in test [3], 3.67 µM; in test [4], 1.64 µM; in [5] it was 2.24 µM; in [6], 2.98 µM. The TGI in test [7] was 1.08 µM; in test [8], 4.03 µM; in [9] it was 4.27 µM; in [10] it was 1.92 µM.

In the case of `CCn1c(SC)nnc1-c1cc2c([nH]c3ccccc32)c(-c2cccc(O)c2)n1`, the GI50 in [1] was 2.05 µM; in test [2], 3.62 µM; in test [3], 2.51 µM; in [4], 1.37 µM; in test [5] it was 2.87 µM; in test [6], 4.44 µM. The GI50 in [7] is 4.46 µM; in test [8] it was 0.95 µM; in test [9], 1.03 µM; in test [10] it was 2.97 µM. Further, the TGI in test [1] was above 100 µM; in test [2], 24.5 µM; in [3], 29.1 µM; in test [4] it was 9.58 µM; in test [5], 15.8 µM; in test [6] it was 51.4 µM. In addition, the TGI worked out at 24.9 µM in test [7], 51.6 µM in test [8], 5.97 µM in [9] and 19.1 µM in [10].

`CN(C)C(=O)c1cc2cnc(Nc3ccc(N4CCNCC4)cn3)nc2n1C1CCCC1`: the GI50 in test [1] was 1.8 µM; in test [2], 23.7 µM; in test [3] it was 4.44 µM; in [4], 5.4 µM; in test [5], 2.09 µM; in test [6], 13.9 µM. For the same compound, the GI50 in [7] was 23.5 µM; in test [8] it was 16.6 µM; in test [9], 11.6 µM; in test [10], 11.3 µM. Besides, the TGI in test [1] stood at 34.5 µM; in [2], 89.7 µM; in [3], 26.3 µM; in [4], 22.3 µM; in test [5] it was 58.5 µM; in [6], 93.6 µM. Moreover, the TGI in test [7] is above 100 µM; in test [8], above 100 µM; in test [9], 24.5 µM; in test [10], 49.8 µM.

For `COc1ccc(S(=O)(=O)NCCCNc2nccc(-c3c(-c4ccc(F)cc4)nc4sccn34)n2)cc1`, the GI50 was 5.7 µM in test [1]; 4.3 µM in test [2]; 5.53 µM in [3]; 5.78 µM in test [4]; 18 µM in [5]; 7.55 µM in test [6]. Besides, the GI50 in test [7] was 7.14 µM; in test [8] it was 3.6 µM; in [9] it was 5.49 µM; in test [10], 7.26 µM. Moreover, the TGI in test [1], in test [2], in test [3], in test [4], in test [5] and in test [6] was above 100 µM throughout. In addition, the TGI in [7] was above 100 µM; in test [8], above 100 µM; in test [9], 74.9 µM; in [10], above 100 µM.
